Laboratory results: patent US20250352530A1, “METHOD AND COMPOSITION FOR TREATING LUNG DISEASES” (MannKind Corporation, priority 2024, published 2025)

Assay: Pharmacokinetic study in rats, pulmonary insufflation versus intravenous injection
Assay type: in vivo, male Sprague Dawley rats
Conditions: 0.8 mg/kg single dose; lung samples 10-240 minutes post administration; FIG. 5
Description: Pharmacokinetic studies in rats with Compound I crystalline composite (XC) dry powders—Insufflation studies were performed in rats to deliver doses of dry powders of Compound I, a protein kinase antagonist. The study was performed to determine the pharmacokinetics profile of Compound I dry powders made by the process as described above following pulmonary insufflation, or intravenous injection of a single dose of the composition administered in solution to male Sprague Dawley (Charles River Laboratories) adult rats, weighing between 200 g and 250 g at the time of the study. Dry powder comprising 22.1 wt % actual drug content were used and tested at 1 mg/ml in solution to deliver a dose of 0.8 mg/kg to 18 rats in each study group. Rats acclimatized and anesthetized prior to experimentation. Lung and blood samples were taken from the rats at 10, 20, 30, 120, and 240 minutes, post drug administration.

## Cc1cccc(-n2ncc(C)c2-c2cc3cnccc3s2)n1 [Compound I, 2-[4-methyl-1-(6-methylpyridin-2-yl)-1H-pyrazol-5-yl]thieno-[3,2-c]pyridine]
  content of Compound I in rat lung, insufflation versus IV injection: a higher content of Compound I was detected in rat lung after insufflation versus IV injection for a longer period of time
